Results taken from patent US11041181B2, “Promoter and method for producing purine nucleotide using the same” (CJ CHEILJEDANG CORPORATION, priority 2019, dated 2021).

How the values were obtained:
CJI2332 = assay type: cell-based, Corynebacterium stationis
Experimental: (§1) To prepare an IMP-producing strain derived from the ATCC6872 strain, the culture of ATCC6872 was suspended in a phosphate buffer (pH 7.0) or citrate buffer (pH 5.5) at a density of 10^7 cells/mL to 10^8 cells/mL and treated with UV at room temperature or 32° C. for 20 min to 40 min to induce a mutation. The strain was washed with a 0.85% saline solution twice and spread, after dilution, on a minimal medium containing 1.7% agar which was supplemented with a resistance-providing material at an appropriate concentration, and thereby colonies were obtained. Each colony was cultured in a nutrient medium and then cultured in a seed culture medium for 24 hours. […] To prepare a strain producing IMP at high concentration, adenine-auxotroph, guanine-leaky type, lysozyme sensitivity, 3,4-dehydroproline resistance, streptomycin resistance, sulfaguanidine resistance, norvaline resistance, and trimethoprim resistance were provided by performing the corresponding procedures in a sequential manner. As a result, the CJI2332 strain provided with resistance to the above materials and having excellent IMP productivity was finally selected.
(§2) Minimal medium: 2% glucose, 0.3% sodium sulfate, 0.1% monopotassium phosphate, 0.3% dipotassium phosphate, 0.3% magnesium sulfate, 10 mg/L calcium chloride, 10 mg/L iron sulfate, 1 mg/L zinc sulfate, 3.6 mg/L manganese chloride, 20 mg/L L-cysteine, 10 mg/L calcium pantothenate, 5 mg/L thiamine hydrochloride, 30 μg/L biotin, 20 mg/L adenine, 20 mg/L guanine, adjusted to pH 7.3.

ATCC6872 = assay: Resistance/sensitivity characteristics of strain on minimal medium with resistance-providing material; assay type: cell-based, Corynebacterium stationis
Experimental: as §1, §2

Compound | resistance (CJI2332) | resistance (ATCC6872) | further results
O=C(O)C1C=CCN1 (stereo not drawn) [3,4-Dehydroproline] | 3,500 μg/mL | 1,000 μg/mL | –
[H]/N=C(/N)N[C@H]1[C@H](O)[C@@H](O)[C@H](O[C@@H]2O[C@@H](C)[C@](O)(C=O)[C@H]2O[C@@H]2O[C@@H](CO)[C@H](O)[C@@H](O)[C@@H]2NC)[C@@H](N/C(N)=N\[H])[C@@H]1O [Streptomycin] | 2,000 μg/mL | 500 µg/mL | –
CCC[C@H](N)C(=O)O [Norvaline] | – | – | Norvaline resistance (CJI2332): 2 mg/mL; Norvaline resistance (ATCC6872): 0.2 mg/mL
Lysozyme | – | – | Lysozyme sensitivity (CJI2332): 8 µg/mL; Lysozyme sensitivity (ATCC6872): 80 µg/mL
COc1cc(Cc2cnc(N)nc2N)cc(OC)c1OC [Trimethoprim] | 100 µg/mL | 20 µg/mL | –
[H]/N=C(/N)NS(=O)(=O)c1ccc(N)cc1 [Sulfaguanidine] | 200 µg/mL | 50 µg/mL | –
